Data as given in ChEMBL document CHEMBL4359846, “Design, synthesis, and antifibrosis evaluation of 4-(benzo-[c][1,2,5]thiadiazol-5-yl)-3(5)-(6-methyl- pyridin-2-yl)pyrazole and 3(5)-(6-methylpyridin- 2-yl)-4-(thieno-[3,2,-c]pyridin-2-yl)pyrazole derivatives” (Eur J Med Chem, 2019).

Experiments:
[1] = target: T1, Mitogen-activated protein kinase 14 (Homo sapiens, UniProt Q16539); assay: Inhibition of human recombinant untagged p38alpha expressed in Escherichia coli at 10 uM using ATF2 as substrate incubated for 60 mins in presence of [33P]-ATP by radiometric assay relative to control
T1 sequence (Q16539 whole entry): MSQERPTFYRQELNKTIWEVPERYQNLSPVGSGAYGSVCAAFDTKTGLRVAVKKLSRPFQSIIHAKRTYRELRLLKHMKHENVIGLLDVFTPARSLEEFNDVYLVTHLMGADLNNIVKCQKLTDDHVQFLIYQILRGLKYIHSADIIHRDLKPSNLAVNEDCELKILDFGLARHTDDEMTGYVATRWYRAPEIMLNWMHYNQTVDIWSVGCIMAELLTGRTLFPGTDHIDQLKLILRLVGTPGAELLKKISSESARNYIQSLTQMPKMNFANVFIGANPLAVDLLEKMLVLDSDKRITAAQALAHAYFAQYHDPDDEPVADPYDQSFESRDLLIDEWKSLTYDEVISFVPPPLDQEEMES

[2] = Cytotoxicity against human LX2 cells assessed as reduction in cell viability at 4 to 100 uM incubated for 3 hrs by MTT assay; type: cell-based
[3] = target: T1, Mitogen-activated protein kinase 14; assay: Inhibition of human recombinant untagged p38alpha expressed in Escherichia coli using ATF2 as substrate incubated for 60 mins in presence of [33P]-ATP by radiometric assay
TGF-beta receptor type-1 = target: T2, TGF-beta receptor type-1 (Homo sapiens, UniProt P36897); assay: Inhibition of human recombinant GST-tagged ALK5 expressed in Sf9 insect cells using casein as substrate incubated for 60 mins in presence of [33P]-ATP by radiometric assay
T2 sequence (P36897 whole entry): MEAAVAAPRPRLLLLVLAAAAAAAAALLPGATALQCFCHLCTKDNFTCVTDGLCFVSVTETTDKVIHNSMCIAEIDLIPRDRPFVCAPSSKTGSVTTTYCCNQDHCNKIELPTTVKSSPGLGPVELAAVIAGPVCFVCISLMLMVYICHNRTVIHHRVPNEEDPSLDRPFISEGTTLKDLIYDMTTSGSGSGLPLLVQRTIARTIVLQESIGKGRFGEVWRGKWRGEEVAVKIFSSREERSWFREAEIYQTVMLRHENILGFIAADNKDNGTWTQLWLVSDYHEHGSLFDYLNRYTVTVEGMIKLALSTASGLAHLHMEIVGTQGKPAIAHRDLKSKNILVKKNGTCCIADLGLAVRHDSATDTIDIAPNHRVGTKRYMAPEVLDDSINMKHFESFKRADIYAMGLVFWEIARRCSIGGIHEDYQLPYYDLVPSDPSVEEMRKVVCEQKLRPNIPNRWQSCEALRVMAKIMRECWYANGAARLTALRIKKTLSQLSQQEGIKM

[4] = target: T3, TGF-beta receptor type-1 (Homo sapiens) (UniProt P36897); assay: Inhibition of human recombinant GST-tagged ALK5 expressed in Sf9 insect cells at 10 uM using casein as substrate incubated for 60 mins in presence of [33P]-ATP by radiometric assay relative to control
T3 sequence (whole entry): T2 sequence (P36897 whole entry)

Row | Compound | inhibition [1] | IC50 [3] | IC50 (TGF-beta receptor type-1) | inhibition [4] | Activity [2]
1 | Cc1cccc(-c2c(-c3ccc4nsnc4c3)cnn2CC(=O)Nc2cccc(C#N)c2)n1 | 0 to 66% | – | – | 52 to 98% | –
2 | Cc1cccc(-c2nn(CC(=S)Nc3cccc(F)c3)cc2-c2ccc3nsnc3c2)n1 | 0 to 66% | 7040 nM | 30 nM | – | Toxic
3 | Cc1cccc(-c2nn(CC(=O)Nc3cccc(C#N)c3)cc2-c2ccc3nsnc3c2)n1 | 0 to 66% | > 10000 nM | 165 nM | 98 to 99% | –
4 | Cc1cccc(-c2nn(CC(=O)Nc3ccccc3F)cc2-c2ccc3nsnc3c2)n1 | 0 to 66% | > 10000 nM | 168 nM | 98 to 99% | –
5 | Cc1cccc(-c2nn(CC(=S)Nc3ccccc3F)cc2-c2ccc3nsnc3c2)n1 | 0 to 66% | 3800 nM | 55 nM | – | –
6 | Cc1cccc(-c2nn(CC(=O)Nc3cccc(F)c3)cc2-c2ccc3nsnc3c2)n1 | 0 to 66% | > 10000 nM | 87 nM | 98 to 99% | –
7 | Cc1cccc(-c2nn(CC(=S)Nc3ccccc3)cc2-c2ccc3nsnc3c2)n1 | 0 to 66% | 5800 nM | 42 nM | – | –
8 | Cc1cccc(-c2c(-c3ccc4nsnc4c3)cnn2CC(=O)Nc2cccc(F)c2)n1 | 0 to 66% | – | – | 52 to 98% | –
9 | Cc1cccc(-c2nn(CC(=S)Nc3cccc(C#N)c3)cc2-c2ccc3nsnc3c2)n1 | 0 to 66% | > 10000 nM | 116 nM | – | –
10 | Cc1cccc(-c2c(-c3ccc4nsnc4c3)cnn2CC(=O)Nc2ccccc2F)n1 | 0 to 66% | – | – | 52 to 98% | –
11 | Cc1cccc(-c2c(-c3ccc4nsnc4c3)cnn2CC(=O)Nc2ccccc2)n1 | 0 to 66% | – | – | 52 to 98% | –

Further lines, with some results ahead:

Row | inhibition [1] | IC50 [3] | IC50 (TGF-beta receptor type-1) | inhibition [4] | Compound | Activity [2]
12 | 0 to 66% | 8120 nM | 39 nM | – | Cc1cccc(-c2nn(CC(=O)Nc3ccccc3)cc2-c2cc3cnccc3s2)n1 | Non-Toxic
13 | 0 to 66% | – | – | 46 to 91% | Cc1cccc(-c2c(-c3cc4cnccc4s3)cnn2CC(=O)Nc2cccc(C#N)c2)n1 | –
14 | 0 to 66% | > 10000 nM | 125 nM | – | Cc1cccc(-c2nn(CC(=S)Nc3cccc(F)c3)cc2-c2cc3cnccc3s2)n1 | –
15 | 0 to 66% | – | – | 46 to 91% | Cc1cccc(-c2c(-c3cc4cnccc4s3)cnn2CC(=O)Nc2cccc(F)c2)n1 | –
16 | 0 to 66% | 9460 nM | 78 nM | – | Cc1cccc(-c2nn(CC(=S)Nc3cccc(C#N)c3)cc2-c2cc3cnccc3s2)n1 | –
17 | 0 to 66% | – | – | 46 to 91% | Cc1cccc(-c2c(-c3cc4cnccc4s3)cnn2CC(=O)Nc2ccccc2F)n1 | –
18 | 0 to 66% | > 10000 nM | 312 nM | 98 to 100% | Cc1cccc(-c2nn(CC(=O)Nc3ccccc3F)cc2-c2cc3cnccc3s2)n1 | –
19 | 0 to 66% | – | – | 46 to 91% | Cc1cccc(-c2c(-c3cc4cnccc4s3)cnn2CC(=O)Nc2ccccc2)n1 | –
20 | 0 to 66% | > 10000 nM | 119 nM | 98 to 100% | Cc1cccc(-c2nn(CC(=O)Nc3cccc(F)c3)cc2-c2cc3cnccc3s2)n1 | –
21 | 0 to 66% | > 10000 nM | 30 nM | 98 to 99% | Cc1cccc(-c2nn(CC(=O)Nc3ccccc3)cc2-c2ccc3nsnc3c2)n1 | –
22 | 0 to 66% | > 10000 nM | 230 nM | 98 to 100% | Cc1cccc(-c2nn(CC(=O)Nc3cccc(C#N)c3)cc2-c2cc3cnccc3s2)n1 | –
